The text below walks through data of US8835469B2 (Cadila Healthcare Limited, priority 2009, dated 2014).

The target of this assay is T1, glucokinase (GK) enzyme (Homo sapiens, UniProt P35557).
T1 sequence (P35557 1-465): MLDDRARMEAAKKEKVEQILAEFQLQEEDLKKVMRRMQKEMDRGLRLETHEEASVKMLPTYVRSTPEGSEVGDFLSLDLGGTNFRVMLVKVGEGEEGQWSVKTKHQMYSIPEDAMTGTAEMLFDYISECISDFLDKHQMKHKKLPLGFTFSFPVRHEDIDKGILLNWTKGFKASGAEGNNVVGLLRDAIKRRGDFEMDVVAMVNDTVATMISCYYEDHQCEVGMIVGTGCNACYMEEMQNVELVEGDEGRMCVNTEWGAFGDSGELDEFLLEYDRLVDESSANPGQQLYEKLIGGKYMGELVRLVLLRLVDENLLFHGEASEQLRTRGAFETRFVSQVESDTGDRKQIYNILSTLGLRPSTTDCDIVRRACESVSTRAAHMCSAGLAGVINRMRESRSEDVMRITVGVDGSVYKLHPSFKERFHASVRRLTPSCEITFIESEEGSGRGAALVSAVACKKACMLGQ
As to the kind of experiment: In-vitro glucokinase (GK) activation assay (coupled with glucose-6-phosphate dehydrogenase, absorbance at 340). It counts as biochemical. The following applies: glucose 2.5 mM, read-out: % of GK activity wrt DMSO; for activity at 0.1 µM: 0.1 uM compound; for activity at 1 µM: 1 uM compound; for activity at 5 µM: 5 uM compound; for activity at 10 µM: 10 uM compound. The protocol:
The compound of the invention was incubated with glucokinase (GK) enzyme (0.2 units) for 10 minutes in assay buffer at 26° C. After incubation, addition of glucose-6-phosphate dehydrogenase (2.5 units), ATP (1 mM) and glucose (2.5 mM). Absorbance is measured at 340 nm for 15 minutes with 10 second interval using UV transparent plate in kinetic mode on Spectramax-190 at 30° C.

Regarding `Cc1nnc(-c2ccc(Oc3cc(OC4CCN(C)C4=O)cc(C(=O)Nc4nc(CCN5CCOCC5=O)cs4)c3)cc2)o1` (stereo not shown) [Example 5, 3-(4-(5-Methyl-1,3,4-oxadiazol-2-yl)phenoxy)-5-((1-methyl-2-oxopyrrolidin-3-yl)oxy)-N-(4-(2-(3-oxomorpholino)ethyl)thiazol-2-yl)benzamide], the activity at 0.1 µM is 114%, the activity at 1 µM was determined as 159%, the activity at 5 µM amounted to 287% and the activity at 10 µM worked out at 329%.
The matching figures for `Cc1nnc(-c2ccc(Oc3cc(OC4CCN(C)C4=O)cc(C(=O)NC4=NCCS4)c3)cc2)o1` (stereo not shown) [Example 6, N-(4,5-Dihydrothiazol-2-yl)-3-(4-(5-methyl-1,3,4-oxadiazol-2-yl)phenoxy)-5-((1-methyl-2-oxopyrrolidin-3-yl)oxy)benzamide]: 100%, 115%, 190% and 275%.
On to `Cc1nc(-c2ccc(Oc3cc(OC4CCN(C)C4=O)cc(C(=O)Nc4nccs4)c3)cc2)no1` (stereo not shown) [Example 7, 3-(4-(5-Methyl-1,2,4-oxadiazol-3-yl)phenoxy)-5-((1-methyl-2-oxopyrrolidin-3-yl)oxy)-N-(thiazol-2-yl)benzamide], for which the activity at 0.1 µM amounted to 164%, the activity at 1 µM amounted to 314%, the activity at 5 µM was 356% and the activity at 10 µM is 347%.
The matching figures for `Cc1nnc(-c2ccc(Oc3cc(OC4CCN(C)C4=O)cc(C(=O)Nc4nnc(C5CC5)s4)c3)cc2)o1` (stereo not shown) [Example 8, N-(5-Cyclopropyl-1,3,4-thiadiazol-2-yl)-3-(4-(5-methyl-1,3,4-oxadiazol-2-yl)phenoxy)-5-((1-methyl-2-oxopyrrolidin-3-yl)oxy)benzamide]: 134%, 195%, 218% and 235%.
Take `Cc1nnc(-c2ccc(Oc3cc(OC4CCN(C)C4=O)cc(C(=O)Nc4cnccn4)c3)cc2)o1` (stereo not shown) [Example 9, 3-(4-(5-Methyl-1,3,4-oxadiazol-2-yl)phenoxy)-5-((1-methyl-2-oxopyrrolidin-3-yl)oxy)-N-(pyrazin-2-yl)benzamide]: the activity at 0.1 µM turned out to be 168%, the activity at 1 µM worked out at 292%, the activity at 5 µM is 345% and the activity at 10 µM came out at 346%.
Consider `Cc1nnc(-c2cccc(Oc3cc(OC4CCN(C)C4=O)cc(C(=O)Nc4nccs4)c3)c2)o1` (stereo not shown) [Example 10, 3-(3-(5-Methyl-1,3,4-oxadiazol-2-yl)phenoxy)-5-((1-methyl-2-oxopyrrolidin-3-yl)oxy)-N-(thiazol-2-yl)benzamide], for which the activity at 0.1 µM was 130%, the activity at 1 µM is 204%, the activity at 5 µM is 232% and the activity at 10 µM came to 228%.
With `Cc1nnc(-c2ccc(Oc3cc(OC4CCN(C)C4=O)cc(C(=O)n4c(N)nc5ccccc54)c3)cc2)o1` (stereo not shown) [Example 11, 3-(3-(2-Amino-1H-benzo[d]imidazole-1-carbonyl)-5-(4-(5-methyl-1,3,4-oxadiazol-2-yl)phenoxy)phenoxy)-1-methylpyrrolidin-2-one], the activity at 0.1 µM is 101%, the activity at 1 µM is 109%, the activity at 5 µM was 130% and the activity at 10 µM turned out to be 148%.
On to `Cc1nnc(-c2ccc(Oc3cc(OC4CCN(C)C4=O)cc(C(=O)Nc4cc(C)n(C(=O)OC(C)(C)C)n4)c3)cc2)o1` (stereo not shown) [Example 12, tert-Butyl 5-methyl-3-(3-(4-(5-methyl-1,3,4-oxadiazol-2-yl)phenoxy)-5-((1-methyl-2-oxopyrrolidin-3-yl)oxy)benzamido)-1H-pyrazole-1-carboxylate], for which the activity at 0.1 µM amounted to 107%, the activity at 1 µM came out at 119%, the activity at 5 µM amounted to 139% and the activity at 10 µM was determined as 150%.
For `Cc1nnc(-c2ccc(Oc3cc(OC4CCN(C)C4=O)cc(C(=O)Nc4nc5ccccc5s4)c3)cc2)o1` (stereo not shown) [Example 14, N-(Benzo[d]thiazol-2-yl)-3-(4-(5-methyl-1,3,4-oxadiazol-2-yl)phenoxy)-5-((1-methyl-2-oxopyrrolidin-3-yl)oxy)benzamide] the same measures were 271%, 298%, 288% and 267%.
As for `Cc1nnc(-c2ccc(Oc3cc(OC4CCN(C)C4=O)cc(C(=O)Nc4ncc(C(=O)O)s4)c3)cc2)o1` (stereo not shown) [Example 15, 2-(3-(4-(5-Methyl-1,3,4-oxadiazol-2-yl)phenoxy)-5-((1-methyl-2-oxopyrrolidin-3-yl)oxy)benzamido)thiazole-5-carboxylic acid], the activity at 0.1 µM was 95.5%, the activity at 1 µM came to 126%, the activity at 5 µM turned out to be 206% and the activity at 10 µM was 237%.
The matching figures for `Cc1csc(NC(=O)c2cc(Oc3ccc(-c4nnc(C)o4)cc3)cc(OC3CCN(C(C)C)C3=O)c2)n1` (stereo not shown) [Example 16, 3((1-Isopropyl-2-oxopyrrolidin-3-yl)oxy)-5-(4-(5-methyl-1,3,4-oxadiazol-2-yl)phenoxy)-N-(4-methylthiazol-2-yl)benzamide]: 106%, 169%, 259% and 280%.
For `Cc1nnc(-c2ccc(Oc3cc(OC4CCN(C(C)C)C4=O)cc(C(=O)Nc4ncc(C)s4)c3)cc2)o1` (stereo not shown) [Example 17, 3((1-Isopropyl-2-oxopyrrolidin-3-yl)oxy)-5-(4-(5-methyl-1,3,4-oxadiazol-2-yl)phenoxy)-N-(5-methylthiazol-2-yl)benzamide] the same measures were 125%, 158%, 192% and 178%.
The matching figures for `Cc1nnc(-c2ccc(Oc3cc(OC4CCN(C(C)C)C4=O)cc(C(=O)Nc4nccs4)c3)cc2)o1` (stereo not shown) [Example 18, 3((1-Isopropyl-2-oxopyrrolidin-3-yl)oxy)-5-(4-(5-methyl-1,3,4-oxadiazol-2-yl)phenoxy)-N-(thiazol-2-yl)benzamide]: 125%, 201%, 253% and 280%.
For the compound `Cc1csc(NC(=O)c2cc(Oc3ccc(-c4nnc(C)o4)cc3)cc(OC3CCN(C4CC4)C3=O)c2)n1` (stereo not shown) [Example 19, 3((1-Cyclopropyl-2-oxopyrrolidin-3-yl)oxy)-5-(4-(5-methyl-1,3,4-oxadiazol-2-yl)phenoxy)-N-(4-methylthiazol-2-yl)benzamide], the activity at 0.1 µM is 114%, the activity at 1 µM turned out to be 208%, the activity at 5 µM was 305% and the activity at 10 µM amounted to 282%.
As for `Cc1nnc(-c2ccc(Oc3cc(OC4CCN(C5CC5)C4=O)cc(C(=O)Nc4ncc(C)s4)c3)cc2)o1` (stereo not shown) [Example 20, 3((1-Cyclopropyl-2-oxopyrrolidin-3-yl)oxy)-5-(4-(5-methyl-1,3,4-oxadiazol-2-yl)phenoxy)-N-(5-methylthiazol-2-yl)benzamide], the activity at 0.1 µM was 121%, the activity at 1 µM was determined as 188%, the activity at 5 µM was 208% and the activity at 10 µM is 196%.
For `Cc1nnc(-c2ccc(Oc3cc(OC4CCN(C5CC5)C4=O)cc(C(=O)Nc4nccs4)c3)cc2)o1` (stereo not shown) [Example 21, 3((1-Cyclopropyl-2-oxopyrrolidin-3-yl)oxy)-5-(4-(5-methyl-1,3,4-oxadiazol-2-yl)phenoxy)-N-(thiazol-2-yl)benzamide] the same measures were 120%, 213%, 278% and 281%.
For `Cc1csc(NC(=O)c2cc(Oc3ccc(-c4noc(C)n4)cc3)cc(OC3CCN(C)C3=O)c2)n1` (stereo not shown) [Example 22, 3-(4-(5-Methyl-1,2,4-oxadiazol-3-yl)phenoxy)-5-((1-methyl-2-oxopyrrolidin-3-yl)oxy)-N-(4-methylthiazol-2-yl)benzamide], the activity at 0.1 µM worked out at 163%, the activity at 1 µM stood at 283%, the activity at 5 µM amounted to 347% and the activity at 10 µM is 320%.
For `Cc1nc(-c2ccc(Oc3cc(OC4CCN(C)C4=O)cc(C(=O)Nc4ncc(C)s4)c3)cc2)no1` (stereo not shown) [Example 23, 3-(4-(5-Methyl-1,2,4-oxadiazol-3-yl)phenoxy)-5-((1-methyl-2-oxopyrrolidin-3-yl)oxy)-N-(5-methylthiazol-2-yl)benzamide] the same measures were 168%, 250%, 287% and 282%.
Regarding `Cc1cc(NC(=O)c2cc(Oc3ccc(-c4nnc(C)o4)cc3)cc(OC3CCN(C)C3=O)c2)n[nH]1` (stereo not shown) [Example 24, 3-(4-(5-Methyl-1,3,4-oxadiazol-2-yl)phenoxy)-N-(5-methyl-1H-pyrazol-3-yl)-5-((1-methyl-2-oxopyrrolidin-3-yl)oxy)benzamide], the activity at 0.1 µM worked out at 146%, the activity at 1 µM stood at 147%, the activity at 5 µM is 173% and the activity at 10 µM stood at 189%.
